Type in all cases: binding
In one assay the target is BAZ2BA (Homo sapiens, UniProt Q9UIF8). Briefly: Alphascreen assay BAZ2BA. (Alpha assays give light when donor and acceptor beads are brought close together.)
The next assay concerns the target CECR2A (Homo sapiens, UniProt Q9BXF3). Description: Alphascreen assay CECR2A.
Another assay concerns the target T1, ATAD2A (Homo sapiens, UniProt Q6PL18).
T1 sequence (Q6PL18 1-1390): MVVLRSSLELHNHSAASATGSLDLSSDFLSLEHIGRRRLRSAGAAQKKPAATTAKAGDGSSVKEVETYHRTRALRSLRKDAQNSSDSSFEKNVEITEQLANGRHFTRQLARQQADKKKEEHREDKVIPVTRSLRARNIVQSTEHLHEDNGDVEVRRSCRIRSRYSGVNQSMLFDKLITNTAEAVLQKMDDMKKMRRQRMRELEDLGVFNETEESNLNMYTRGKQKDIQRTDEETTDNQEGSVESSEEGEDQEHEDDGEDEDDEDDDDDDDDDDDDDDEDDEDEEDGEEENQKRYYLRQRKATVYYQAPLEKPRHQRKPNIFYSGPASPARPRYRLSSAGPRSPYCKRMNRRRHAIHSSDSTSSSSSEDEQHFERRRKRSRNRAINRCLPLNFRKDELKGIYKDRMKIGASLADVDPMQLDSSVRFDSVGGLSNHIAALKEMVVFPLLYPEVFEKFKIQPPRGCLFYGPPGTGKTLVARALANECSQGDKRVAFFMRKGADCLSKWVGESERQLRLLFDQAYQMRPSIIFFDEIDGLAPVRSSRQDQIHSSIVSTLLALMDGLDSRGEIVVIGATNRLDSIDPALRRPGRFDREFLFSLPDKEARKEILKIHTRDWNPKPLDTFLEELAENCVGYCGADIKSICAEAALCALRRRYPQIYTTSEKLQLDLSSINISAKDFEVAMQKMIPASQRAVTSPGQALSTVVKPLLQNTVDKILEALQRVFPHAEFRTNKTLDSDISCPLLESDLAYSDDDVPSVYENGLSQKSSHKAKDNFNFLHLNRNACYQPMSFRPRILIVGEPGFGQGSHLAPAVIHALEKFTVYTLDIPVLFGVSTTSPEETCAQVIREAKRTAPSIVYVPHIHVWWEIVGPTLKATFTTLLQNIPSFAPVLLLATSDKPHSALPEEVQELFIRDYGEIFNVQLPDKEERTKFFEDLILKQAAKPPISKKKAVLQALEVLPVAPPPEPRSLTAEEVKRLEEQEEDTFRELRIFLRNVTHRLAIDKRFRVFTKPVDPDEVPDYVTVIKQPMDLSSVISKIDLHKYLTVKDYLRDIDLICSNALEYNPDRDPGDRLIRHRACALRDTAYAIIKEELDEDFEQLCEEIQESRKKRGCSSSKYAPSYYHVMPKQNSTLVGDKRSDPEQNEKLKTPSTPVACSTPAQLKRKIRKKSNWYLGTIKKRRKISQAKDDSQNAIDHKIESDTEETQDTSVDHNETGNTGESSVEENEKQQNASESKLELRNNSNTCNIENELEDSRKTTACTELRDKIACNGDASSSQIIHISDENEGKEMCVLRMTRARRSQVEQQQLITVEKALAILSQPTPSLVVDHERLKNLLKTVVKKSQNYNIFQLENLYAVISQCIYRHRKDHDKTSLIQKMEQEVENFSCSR
Description: Alphascreen assay ATAD2A.

The target in the next assay is T2, BRPF3A (Homo sapiens, UniProt Q9ULD4).
T2 sequence (Q9ULD4 1-1205): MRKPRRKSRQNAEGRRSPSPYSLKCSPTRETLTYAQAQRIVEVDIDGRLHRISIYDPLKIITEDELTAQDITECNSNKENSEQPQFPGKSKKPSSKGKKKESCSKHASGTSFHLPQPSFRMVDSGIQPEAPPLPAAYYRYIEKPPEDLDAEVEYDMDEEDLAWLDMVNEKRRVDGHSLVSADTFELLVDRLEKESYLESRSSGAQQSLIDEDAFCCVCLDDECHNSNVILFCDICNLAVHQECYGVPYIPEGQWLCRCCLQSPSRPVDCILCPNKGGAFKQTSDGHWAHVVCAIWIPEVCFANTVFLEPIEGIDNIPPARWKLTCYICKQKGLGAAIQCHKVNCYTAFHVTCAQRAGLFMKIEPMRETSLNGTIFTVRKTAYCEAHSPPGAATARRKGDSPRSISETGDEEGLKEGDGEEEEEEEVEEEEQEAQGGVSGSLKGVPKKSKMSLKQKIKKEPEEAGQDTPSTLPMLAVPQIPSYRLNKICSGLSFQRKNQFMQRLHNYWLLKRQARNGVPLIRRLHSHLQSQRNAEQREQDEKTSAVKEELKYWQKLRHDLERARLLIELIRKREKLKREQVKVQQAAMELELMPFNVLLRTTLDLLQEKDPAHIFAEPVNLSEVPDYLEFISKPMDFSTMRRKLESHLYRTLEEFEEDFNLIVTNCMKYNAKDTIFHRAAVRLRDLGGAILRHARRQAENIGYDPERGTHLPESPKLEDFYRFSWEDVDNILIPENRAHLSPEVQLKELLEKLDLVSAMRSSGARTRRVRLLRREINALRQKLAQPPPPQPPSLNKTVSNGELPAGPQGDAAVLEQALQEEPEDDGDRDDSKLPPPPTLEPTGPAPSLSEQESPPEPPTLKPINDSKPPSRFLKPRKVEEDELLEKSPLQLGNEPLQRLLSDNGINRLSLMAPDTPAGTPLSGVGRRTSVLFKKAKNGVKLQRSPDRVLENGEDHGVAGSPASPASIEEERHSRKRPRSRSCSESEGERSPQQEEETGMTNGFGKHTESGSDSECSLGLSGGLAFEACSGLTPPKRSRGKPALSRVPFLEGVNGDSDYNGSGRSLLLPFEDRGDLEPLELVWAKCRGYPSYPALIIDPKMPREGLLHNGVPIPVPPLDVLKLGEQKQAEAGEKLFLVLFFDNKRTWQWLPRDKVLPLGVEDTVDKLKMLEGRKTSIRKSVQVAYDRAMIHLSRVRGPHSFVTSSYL
Description: Alphascreen assay BRPF3A.

BAZ2BA, sequence (Q9UIF8 whole entry): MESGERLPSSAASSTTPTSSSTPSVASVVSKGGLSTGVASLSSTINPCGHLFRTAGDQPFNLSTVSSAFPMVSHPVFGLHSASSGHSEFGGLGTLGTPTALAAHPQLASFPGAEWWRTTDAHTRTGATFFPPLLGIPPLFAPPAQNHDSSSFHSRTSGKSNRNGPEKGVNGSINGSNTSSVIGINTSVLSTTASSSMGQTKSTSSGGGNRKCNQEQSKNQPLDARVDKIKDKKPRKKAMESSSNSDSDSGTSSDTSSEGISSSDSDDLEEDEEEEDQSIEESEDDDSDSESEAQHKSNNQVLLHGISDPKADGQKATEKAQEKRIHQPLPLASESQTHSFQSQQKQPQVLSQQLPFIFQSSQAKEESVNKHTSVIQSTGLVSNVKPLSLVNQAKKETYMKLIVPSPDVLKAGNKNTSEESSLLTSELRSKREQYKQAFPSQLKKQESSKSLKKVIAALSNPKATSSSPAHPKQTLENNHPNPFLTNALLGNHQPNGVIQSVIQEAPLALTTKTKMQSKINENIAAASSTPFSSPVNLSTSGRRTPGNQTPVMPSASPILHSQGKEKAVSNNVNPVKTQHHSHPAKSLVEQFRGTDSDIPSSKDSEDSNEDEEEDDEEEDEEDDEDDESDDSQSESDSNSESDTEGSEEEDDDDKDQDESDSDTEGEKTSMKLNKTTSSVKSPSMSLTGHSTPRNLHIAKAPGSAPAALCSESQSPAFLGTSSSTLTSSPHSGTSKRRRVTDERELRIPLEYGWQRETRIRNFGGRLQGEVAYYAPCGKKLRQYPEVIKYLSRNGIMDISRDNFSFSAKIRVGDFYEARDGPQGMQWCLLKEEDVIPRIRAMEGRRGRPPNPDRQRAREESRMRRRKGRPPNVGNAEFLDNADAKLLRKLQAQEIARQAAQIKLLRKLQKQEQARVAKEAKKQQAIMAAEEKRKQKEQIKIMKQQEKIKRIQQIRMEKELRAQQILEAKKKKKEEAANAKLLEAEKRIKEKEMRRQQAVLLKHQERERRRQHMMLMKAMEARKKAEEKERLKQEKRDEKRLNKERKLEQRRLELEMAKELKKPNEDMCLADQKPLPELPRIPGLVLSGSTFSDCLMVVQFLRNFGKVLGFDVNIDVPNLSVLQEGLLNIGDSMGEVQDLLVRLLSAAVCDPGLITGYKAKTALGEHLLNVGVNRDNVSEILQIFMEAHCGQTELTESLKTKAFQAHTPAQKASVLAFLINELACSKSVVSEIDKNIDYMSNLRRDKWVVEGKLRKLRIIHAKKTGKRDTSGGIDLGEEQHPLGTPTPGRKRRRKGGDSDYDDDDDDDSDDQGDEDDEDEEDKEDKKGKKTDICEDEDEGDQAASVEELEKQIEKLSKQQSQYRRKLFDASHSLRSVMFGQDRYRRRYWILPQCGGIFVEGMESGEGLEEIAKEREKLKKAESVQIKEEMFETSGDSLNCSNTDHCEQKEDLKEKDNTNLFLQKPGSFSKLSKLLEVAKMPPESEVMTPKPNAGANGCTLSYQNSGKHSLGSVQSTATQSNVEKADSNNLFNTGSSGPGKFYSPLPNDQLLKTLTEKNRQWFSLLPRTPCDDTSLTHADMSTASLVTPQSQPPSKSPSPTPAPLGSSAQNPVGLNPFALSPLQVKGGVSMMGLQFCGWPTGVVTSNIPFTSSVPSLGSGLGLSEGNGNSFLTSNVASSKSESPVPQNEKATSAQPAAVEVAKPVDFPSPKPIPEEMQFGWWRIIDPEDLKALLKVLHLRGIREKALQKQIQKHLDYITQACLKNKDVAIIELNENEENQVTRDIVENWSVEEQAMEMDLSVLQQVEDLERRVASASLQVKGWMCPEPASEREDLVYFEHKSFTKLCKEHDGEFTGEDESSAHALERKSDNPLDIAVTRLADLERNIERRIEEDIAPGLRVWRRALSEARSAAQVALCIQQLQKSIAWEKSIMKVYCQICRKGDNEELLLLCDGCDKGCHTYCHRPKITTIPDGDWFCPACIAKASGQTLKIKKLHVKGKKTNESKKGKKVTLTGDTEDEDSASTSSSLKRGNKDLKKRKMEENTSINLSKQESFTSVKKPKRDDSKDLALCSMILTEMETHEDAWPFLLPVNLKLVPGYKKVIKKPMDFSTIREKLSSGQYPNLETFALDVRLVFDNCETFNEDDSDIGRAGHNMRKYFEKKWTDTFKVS
CECR2A, sequence (Q9BXF3 whole entry): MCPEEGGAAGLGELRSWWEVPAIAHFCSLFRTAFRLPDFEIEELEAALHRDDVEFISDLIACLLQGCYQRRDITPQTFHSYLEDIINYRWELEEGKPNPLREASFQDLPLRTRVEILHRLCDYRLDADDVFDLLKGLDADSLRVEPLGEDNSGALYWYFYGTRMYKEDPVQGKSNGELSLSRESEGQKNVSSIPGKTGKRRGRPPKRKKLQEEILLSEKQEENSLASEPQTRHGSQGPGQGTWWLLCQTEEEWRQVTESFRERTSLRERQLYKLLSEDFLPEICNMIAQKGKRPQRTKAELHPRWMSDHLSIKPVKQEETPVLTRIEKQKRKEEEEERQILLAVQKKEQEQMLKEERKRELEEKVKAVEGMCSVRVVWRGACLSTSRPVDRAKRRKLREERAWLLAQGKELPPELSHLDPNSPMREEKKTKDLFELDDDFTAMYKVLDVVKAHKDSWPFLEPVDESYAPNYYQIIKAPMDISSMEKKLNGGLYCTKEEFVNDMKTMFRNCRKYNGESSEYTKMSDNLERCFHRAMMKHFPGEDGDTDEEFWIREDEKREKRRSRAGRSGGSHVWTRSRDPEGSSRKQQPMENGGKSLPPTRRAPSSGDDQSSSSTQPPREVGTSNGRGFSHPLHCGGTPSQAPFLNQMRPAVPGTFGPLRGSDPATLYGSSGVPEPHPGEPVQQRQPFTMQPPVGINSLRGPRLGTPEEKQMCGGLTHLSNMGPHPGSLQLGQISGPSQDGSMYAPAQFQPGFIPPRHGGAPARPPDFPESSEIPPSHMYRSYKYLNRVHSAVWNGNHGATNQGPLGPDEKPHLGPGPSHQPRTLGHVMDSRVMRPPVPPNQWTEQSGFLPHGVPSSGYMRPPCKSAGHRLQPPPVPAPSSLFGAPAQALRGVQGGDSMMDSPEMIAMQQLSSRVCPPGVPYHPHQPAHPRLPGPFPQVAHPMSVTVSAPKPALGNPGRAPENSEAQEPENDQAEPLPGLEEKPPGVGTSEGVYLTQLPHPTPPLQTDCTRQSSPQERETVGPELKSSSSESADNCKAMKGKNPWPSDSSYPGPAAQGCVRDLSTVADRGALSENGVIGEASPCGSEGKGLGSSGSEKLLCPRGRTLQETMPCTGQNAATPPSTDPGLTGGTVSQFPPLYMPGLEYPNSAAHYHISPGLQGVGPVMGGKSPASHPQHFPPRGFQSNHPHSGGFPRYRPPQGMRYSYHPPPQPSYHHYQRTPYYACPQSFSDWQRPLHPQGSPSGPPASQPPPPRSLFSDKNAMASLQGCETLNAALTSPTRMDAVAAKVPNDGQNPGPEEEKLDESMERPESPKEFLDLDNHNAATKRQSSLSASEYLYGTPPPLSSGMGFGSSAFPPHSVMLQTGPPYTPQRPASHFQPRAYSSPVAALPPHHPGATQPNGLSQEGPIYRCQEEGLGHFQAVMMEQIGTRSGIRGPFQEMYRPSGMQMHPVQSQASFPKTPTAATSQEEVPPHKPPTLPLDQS

`CC(=O)Nc1ccc2c(C)cc(=O)n(C)c2c1` [compound 12, N-(1,4-dimethyl-2-oxo-1,2-dihydroquinolin-7-yl)acetamide]: the inhibition at 25 µM was -2.6% against BAZ2BA, 38.7% at CECR2A, 2.4% on ATAD2A and 46.8% against BRPF3A.
On to `Cc1cc(=O)n(C)c2cc(NS(C)(=O)=O)ccc12` [compound 13, N-(1,4-dimethyl-2-oxo-1,2-dihydroquinolin-7-yl)methanesulfonam], for which the inhibition at 25 µM was determined as 5.3% against BAZ2BA, 3.9% on CECR2A, 1.4% on ATAD2A and 28.7% at BRPF3A.

A word on the inhibition: it is the relative decrease from the control value, in per cent.
